Source: the supplement of paper PMC10307832

Compound: Cc1ccc(NC(=O)c2ccc(CN3CCN(C)CC3)cc2)cc1Nc1nc(-c2cccnc2)cs1 [Masitinib] + Nc1nc2[nH]cc(CCc3ccc(C(=O)N[C@@H](CCC(=O)O)C(=O)O)cc3)c2c(=O)[nH]1 [Pemetrexed] (partner 0.2 µM)
Assay: relative viability (nuclei count vs DMSO), 5 days (fraction); higher = more cells survive
Details: first compound 0.01 µM
How it was run: (§1)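 One day after seeding in 1536-well plates, lung cancer cell lines were dosed by pin tool. Dosing was either single-drug or a fixed anchor-drug dose plus five library-drug doses (not always all listed) in √10 steps. After 5 days, nuclei were stained in one fix-and-stain step and counted on 4× images, and relative viability is the nuclei count of treated wells over that of vehicle wells, given as the median of duplicate plates.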

Cell Line	relative viability
NCI-H1666	0.943
EPLC-272H	0.32
NCI-H23	0.795
NCI-H1437	0.312
NCI-H322M	0.606
NCI-H2085	0.976
HCC-15	0.226
PC-3 [JPC-3]	1.04
EKVX	0.375
LC-2-ad	0.265
NCI-H1650	0.389
NCI-H2170	0.238
NCI-H1993	0.622
SK-LU-1	0.982
SK-MES-1	0.844
RERF-LC-KJ	0.475

Same assay, conditions: first compound 0.03162 µM

Cell Line	relative viability
NCI-H1666	0.842
NCI-H23	0.607
NCI-H1915	0.507
NCI-H1437	0.355
NCI-H322M	0.594
NCI-H2085	0.936
HCC-15	0.24
NCI-H1944	0.618
PC-3 [JPC-3]	0.733
EKVX	0.511
LC-2-ad	0.29
NCI-H1650	0.49
NCI-H2170	0.264
NCI-H1993	0.58
SK-LU-1	1
SK-MES-1	0.924
RERF-LC-KJ	0.522

Same assay, conditions: first compound 0.1 µM

Cell Line	relative viability
NCI-H1666	0.885
EPLC-272H	0.348
NCI-H23	0.699
NCI-H1437	0.37
NCI-H322M	0.625
NCI-H2085	1.01
HCC-15	0.212
PC-3 [JPC-3]	1.06
EKVX	0.466
LC-2-ad	0.268
NCI-H1650	0.395
NCI-H2170	0.263
NCI-H1993	0.582
SK-LU-1	1.06
SK-MES-1	0.873
RERF-LC-KJ	0.44

Same assay, conditions: first compound 0.3162 µM

Cell Line	relative viability
NCI-H1666	0.708
EPLC-272H	0.399
NCI-H23	0.641
NCI-H1915	0.467
NCI-H1437	0.325
NCI-H322M	0.615
NCI-H2085	0.992
HCC-15	0.203
NCI-H1944	0.572
PC-3 [JPC-3]	1.37
LC-2-ad	0.248
NCI-H1650	0.365
NCI-H2170	0.284
NCI-H1993	0.483
SK-LU-1	0.919
SK-MES-1	0.877
RERF-LC-KJ	0.535

Same assay, conditions: first compound 1 µM

Cell Line	relative viability
NCI-H1666	0.77
EPLC-272H	0.249
NCI-H23	0.626
NCI-H1915	0.496
NCI-H1437	0.311
NCI-H322M	0.582
NCI-H2085	0.844
HCC-15	0.226
NCI-H1944	0.566
PC-3 [JPC-3]	0.87
EKVX	0.35
LC-2-ad	0.247
NCI-H1650	0.374
NCI-H2170	0.263
NCI-H1993	0.502
SK-LU-1	1.03
SK-MES-1	0.967
RERF-LC-KJ	0.459

Compound: CC1=CC(=CC=C1)NC2=NC(=CS2)C3=CC=NC=C3 + CC1(C)CCC(c2ccc(Cl)cc2)=C(CN2CCN(c3ccc(C(=O)NS(=O)(=O)c4ccc(N[C@H](CCN5CCOCC5)CSc5ccccc5)c(S(=O)(=O)C(F)(F)F)c4)cc3)CC2)C1 [Navitoclax] (partner 0.5 µM)
Assay: as above
Details: first compound 0.08 µM
How it was run: as §1

Cell Line	relative viability
NCI-H1666	0.82
EPLC-272H	1.02
NCI-H23	0.822
NCI-H1915	0.747
NCI-H1437	1.04
NCI-H322M	1.19
NCI-H2085	0.959
HCC-15	0.698
NCI-H1944	1.03
PC-3 [JPC-3]	0.791
EKVX	0.901
LC-2-ad	0.395
NCI-H1650	1.07
NCI-H2170	0.631
NCI-H1993	0.724
SK-LU-1	0.837
SK-MES-1	0.94
RERF-LC-KJ	0.71

Same assay, conditions: first compound 0.253 µM

Cell Line	relative viability
NCI-H1666	0.818
NCI-H23	0.832
NCI-H1915	0.791
NCI-H1437	1.06
NCI-H322M	1.12
NCI-H2085	1.13
HCC-15	0.661
NCI-H1944	1.01
PC-3 [JPC-3]	0.671
EKVX	0.837
LC-2-ad	0.379
NCI-H1650	0.938
NCI-H2170	0.575
NCI-H1993	0.718
SK-LU-1	1.22
SK-MES-1	1.02
RERF-LC-KJ	0.627

Same assay, conditions: first compound 0.8 µM

Cell Line	relative viability
NCI-H1666	0.535
EPLC-272H	0.871
NCI-H23	1
NCI-H1915	0.84
NCI-H1437	1.04
NCI-H322M	1.19
NCI-H2085	1.12
HCC-15	0.65
NCI-H1944	1.05
PC-3 [JPC-3]	0.719
EKVX	0.676
LC-2-ad	0.383
NCI-H1650	0.935
NCI-H2170	0.538
NCI-H1993	0.818
SK-LU-1	0.636
SK-MES-1	1.1
RERF-LC-KJ	0.631

Same assay, conditions: first compound 2.53 µM

Cell Line	relative viability
NCI-H1666	0.578
NCI-H23	0.831
NCI-H1915	0.779
NCI-H1437	1.13
NCI-H322M	1.29
NCI-H2085	1.12
HCC-15	0.615
NCI-H1944	1.01
PC-3 [JPC-3]	0.705
EKVX	0.923
LC-2-ad	0.464
NCI-H1650	1.13
NCI-H2170	0.545
NCI-H1993	0.775
SK-LU-1	1.06
SK-MES-1	1.06
RERF-LC-KJ	0.638

Same assay, conditions: first compound 8 µM

Cell Line	relative viability
NCI-H1666	0.417
EPLC-272H	0.979
NCI-H23	0.999
NCI-H1915	0.811
NCI-H1437	0.96
NCI-H322M	1.12
NCI-H2085	0.809
HCC-15	0.507
NCI-H1944	1.01
PC-3 [JPC-3]	0.681
EKVX	0.98
LC-2-ad	0.278
NCI-H1650	0.811
NCI-H2170	0.426
NCI-H1993	0.793
SK-LU-1	1.35
SK-MES-1	1.08
RERF-LC-KJ	0.275

Compound: Cc1ccc(NC(=O)c2ccc(CN3CCN(C)CC3)cc2)cc1Nc1nc(-c2cccnc2)cs1 [Masitinib] + COc1cc2c(Oc3ccc(NC(=O)C4(C(=O)Nc5ccc(F)cc5)CC4)cc3F)ccnc2cc1OCCCN1CCOCC1 [Foretinib] (partner 0.25 µM)
Assay: as above
Details: first compound 0.01 µM
How it was run: as §1

Cell Line	relative viability
EPLC-272H	0.63
NCI-H23	0.945
NCI-H1437	1.26
NCI-H322M	0.973
NCI-H2085	0.851
HCC-15	0.989
PC-3 [JPC-3]	1.03
LC-2-ad	0.87
NCI-H1650	0.984
NCI-H2170	1.05
NCI-H1993	0.864
SK-LU-1	0.803
SK-MES-1	1
RERF-LC-KJ	0.734

Same assay, conditions: first compound 0.03162 µM

Cell Line	relative viability
NCI-H1666	0.889
EPLC-272H	0.64
NCI-H23	1.05
NCI-H1915	1.13
NCI-H1437	1.26
NCI-H322M	0.896
NCI-H2085	0.91
HCC-15	0.949
NCI-H1944	0.832
PC-3 [JPC-3]	0.98
EKVX	0.663
LC-2-ad	0.859
NCI-H1650	0.914
NCI-H2170	1.04
NCI-H1993	0.862
SK-LU-1	0.815
SK-MES-1	0.861
RERF-LC-KJ	0.883

Same assay, conditions: first compound 0.1 µM

Cell Line	relative viability
NCI-H1666	0.91
EPLC-272H	0.669
NCI-H23	1.04
NCI-H1437	1.3
NCI-H322M	1.02
NCI-H2085	0.919
HCC-15	1.02
PC-3 [JPC-3]	1.02
EKVX	0.53
LC-2-ad	1.09
NCI-H1650	1.09
NCI-H2170	1.16
NCI-H1993	0.828
SK-LU-1	0.95
SK-MES-1	1.1
RERF-LC-KJ	0.987

Same assay, conditions: first compound 0.3162 µM

Cell Line	relative viability
NCI-H1666	1.03
EPLC-272H	0.875
NCI-H23	0.564
NCI-H1915	1.1
NCI-H1437	1.13
NCI-H322M	0.935
NCI-H2085	1.23
HCC-15	1.05
NCI-H1944	0.793
PC-3 [JPC-3]	1.02
EKVX	0.458
LC-2-ad	0.847
NCI-H1650	0.902
NCI-H2170	1.02
NCI-H1993	0.638
SK-LU-1	0.945
SK-MES-1	0.572
RERF-LC-KJ	0.746

Same assay, conditions: first compound 1 µM

Cell Line	relative viability
NCI-H1666	1
EPLC-272H	0.645
NCI-H23	1.01
NCI-H1915	1.11
NCI-H1437	1.27
NCI-H322M	0.948
NCI-H2085	0.878
HCC-15	0.983
NCI-H1944	0.85
PC-3 [JPC-3]	1
EKVX	0.68
LC-2-ad	0.825
NCI-H1650	1.17
NCI-H2170	0.994
NCI-H1993	0.742
SK-LU-1	0.931
SK-MES-1	0.841
RERF-LC-KJ	0.797

Compound: Cc1ccc(NC(=O)c2ccc(CN3CCN(C)CC3)cc2)cc1Nc1nc(-c2cccnc2)cs1 [Masitinib] + CC1(C)CCC(c2ccc(Cl)cc2)=C(CN2CCN(c3ccc(C(=O)NS(=O)(=O)c4ccc(N[C@H](CCN5CCOCC5)CSc5ccccc5)c(S(=O)(=O)C(F)(F)F)c4)cc3)CC2)C1 [Navitoclax] (partner 0.5 µM)
Assay: as above
Details: first compound 0.01 µM
How it was run: as §1

Cell Line	relative viability
NCI-H1666	0.933
EPLC-272H	1.08
NCI-H23	0.879
NCI-H1437	1.07
NCI-H322M	1.18
NCI-H2085	1.1
HCC-15	0.667
PC-3 [JPC-3]	0.768
LC-2-ad	0.486
NCI-H1650	1.25
NCI-H2170	0.683
NCI-H1993	0.921
SK-LU-1	0.927
SK-MES-1	1.29
RERF-LC-KJ	0.986

Same assay, conditions: first compound 0.03162 µM

Cell Line	relative viability
NCI-H1666	0.778
EPLC-272H	1.13
NCI-H23	0.789
NCI-H1915	0.755
NCI-H1437	1.01
NCI-H322M	1.15
NCI-H2085	1.23
HCC-15	0.606
NCI-H1944	1.02
PC-3 [JPC-3]	0.682
EKVX	0.688
LC-2-ad	0.412
NCI-H1650	0.981
NCI-H2170	0.486
SK-LU-1	1.05
SK-MES-1	1.23

Same assay, conditions: first compound 0.1 µM

Cell Line	relative viability
NCI-H1666	0.915
EPLC-272H	1.08
NCI-H23	0.966
NCI-H1915	0.717
NCI-H1437	1.08
NCI-H322M	1.3
NCI-H2085	1.33
HCC-15	0.819
NCI-H1944	0.799
PC-3 [JPC-3]	0.806
EKVX	0.865
LC-2-ad	0.667
NCI-H1650	1.15
NCI-H2170	0.546
NCI-H1993	0.944
SK-LU-1	1.04
SK-MES-1	1.24
RERF-LC-KJ	1.07

Same assay, conditions: first compound 0.3162 µM

Cell Line	relative viability
NCI-H1666	0.782
EPLC-272H	1.23
NCI-H23	0.706
NCI-H1915	0.737
NCI-H1437	1.1
NCI-H322M	1.22
NCI-H2085	1.16
HCC-15	0.647
NCI-H1944	1
PC-3 [JPC-3]	0.659
EKVX	0.577
LC-2-ad	0.485
NCI-H1650	1.13
NCI-H2170	0.577
NCI-H1993	0.651
SK-LU-1	1
SK-MES-1	1.17
RERF-LC-KJ	0.873

Same assay, conditions: first compound 1 µM

Cell Line	relative viability
NCI-H1666	0.88
EPLC-272H	1.06
NCI-H23	0.872
NCI-H1915	0.777
NCI-H1437	1.06
NCI-H322M	1.26
NCI-H2085	1.03
HCC-15	0.725
NCI-H1944	0.995
PC-3 [JPC-3]	0.787
EKVX	0.968
LC-2-ad	0.408
NCI-H1650	1.14
NCI-H2170	0.559
NCI-H1993	0.885
SK-LU-1	0.869
SK-MES-1	0.99
RERF-LC-KJ	0.541
